One molecule from patent US8927500B2, “Peptidomimetic macrocycles” (Aileron Therapeutics, Inc., priority 2012, dated 2015) can be followed below.

Each structure is given as a SMILES string.

One data set concerns SJSA-1 cells. Description: Cell viability assay (MTT), SJSA-1. The conditions noted are these: in words.
Data set [1] in a line: MCF-7 xenograft study, body weight, deaths and tolerability. The data set is classed as in vivo, mice. The conditions noted are these: 30 mg/kg 3×/wk iv. From the text: A negative control stapled peptide.
In data set [2] the test system is MCF-7 breast cancer xenograft. Description: MCF-7 breast cancer xenograft study, tumor growth inhibition. The conditions noted are these: 30 mg/kg 3×/wk iv.
Procedure: This formulation was prepared once for the duration of the study.
Each group was assigned to a different treatment regimen.
During the dosing period the mice were weighed and tumors measured 1-2 times per week.

For `CC(=O)N[C@@H](CC(C)C)C(=O)N[C@H](C(=O)N[C@@H](C)C(=O)N[C@]1(C)CCCCCCC=CCCC[C@@](C)(C(=O)N[C@@H](CO)C(=O)N[C@@H](C)C(=O)N[C@@H](C)C(N)=O)NC(=O)[C@H](CC2CCC2)NC(=O)[C@H](CCC(N)=O)NC(=O)[C@H](C)NC(=O)[C@H](Cc2c[nH]c3ccccc23)NC(=O)[C@H](Cc2ccc(O)cc2)NC(=O)[C@H](CCC(=O)O)NC1=O)[C@@H](C)O` [SP252], in the data set on SJSA-1 cells, the “activity in the SJSA-1 in vitro viability assay” value was “no activity”. Besides, in the data set on SJSA-1 cells (in vitro assays not specified), the “activity in in vitro assays” value is “no appreciable activity”. Also, in data set [1], the “% BW Change” value is listed as “+3.3%”, the “No. with ≧10% BW Loss” value was 0/10 and the “No. with ≧20% BW Loss or death” value is 0/10. The “tolerability of dosing regimen” value in data set [1] (in words) is given as “well-tolerated”. For the same molecule, the “TGI by Day 32” value in data set [2] is recorded as 88%.
